What was measured:
[1] = biological target: Phosphatidylinositol 4,5-bisphosphate 3-kinase catalytic subunit gamma isoform (Homo sapiens) (UniProt P48736); test: Inhibition of PI3Kgamma (unknown origin) at 10 uM incubated for 60 mins by kinase-glo luminescence assay
[2] = biological target: T1, Phosphatidylinositol 4,5-bisphosphate 3-kinase catalytic subunit delta isoform (Homo sapiens, UniProt O00329); test: Inhibition of PI3Kdelta (unknown origin) incubated for 60 mins by kinase-glo luminescence assay
T1 sequence (O00329 whole entry): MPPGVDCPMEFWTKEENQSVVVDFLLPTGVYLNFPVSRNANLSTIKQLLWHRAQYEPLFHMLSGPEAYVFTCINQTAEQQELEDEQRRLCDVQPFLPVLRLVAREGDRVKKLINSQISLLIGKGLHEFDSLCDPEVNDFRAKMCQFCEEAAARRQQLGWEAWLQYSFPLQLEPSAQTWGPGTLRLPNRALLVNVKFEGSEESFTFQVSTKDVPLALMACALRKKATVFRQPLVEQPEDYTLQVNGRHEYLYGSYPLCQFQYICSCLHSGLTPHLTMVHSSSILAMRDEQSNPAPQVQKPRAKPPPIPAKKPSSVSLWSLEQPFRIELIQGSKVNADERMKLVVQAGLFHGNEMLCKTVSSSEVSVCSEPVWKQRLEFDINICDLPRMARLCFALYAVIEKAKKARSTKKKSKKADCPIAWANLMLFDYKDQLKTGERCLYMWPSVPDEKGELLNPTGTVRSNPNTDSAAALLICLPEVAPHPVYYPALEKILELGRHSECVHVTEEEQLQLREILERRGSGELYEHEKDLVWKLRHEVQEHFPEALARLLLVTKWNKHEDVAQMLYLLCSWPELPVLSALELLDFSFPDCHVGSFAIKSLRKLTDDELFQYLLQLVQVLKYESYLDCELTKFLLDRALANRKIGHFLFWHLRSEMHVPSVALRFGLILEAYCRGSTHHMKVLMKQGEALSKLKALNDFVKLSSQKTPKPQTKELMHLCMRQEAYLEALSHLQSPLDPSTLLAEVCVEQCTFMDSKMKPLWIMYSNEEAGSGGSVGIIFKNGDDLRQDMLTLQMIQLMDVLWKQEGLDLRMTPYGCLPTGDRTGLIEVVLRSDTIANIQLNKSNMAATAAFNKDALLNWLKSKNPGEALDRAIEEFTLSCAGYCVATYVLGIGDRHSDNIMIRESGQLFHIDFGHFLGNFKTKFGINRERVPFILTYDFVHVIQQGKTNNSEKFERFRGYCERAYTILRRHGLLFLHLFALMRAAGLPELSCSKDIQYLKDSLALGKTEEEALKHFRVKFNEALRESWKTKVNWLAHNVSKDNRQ

[3] = test system: CCRF-CEM; test: Cytotoxicity against human CCRF-CEM cells assessed as cell growth inhibition at 10 uM after 48 hrs by SRB assay relative to control; format: functional; details: read-out: GI
[4] = Cytotoxicity against human HL-60(TB) cells assessed as cell growth inhibition at 10 uM after 48 hrs by SRB assay relative to control; format: functional; details: HL-60, 48 h, read-out: GI
[5] = test system: EKVX; test: Cytotoxicity against human EKVX cells assessed as cell growth inhibition at 10 uM after 48 hrs by SRB assay relative to control; format: functional; details: read-out: GI
[6] = test system: NCI-H226; test: Cytotoxicity against human NCI-H226 cells assessed as cell growth inhibition at 10 uM after 48 hrs by SRB assay relative to control; format: functional; details: NCI-H226, 48 h, read-out: GI
[7] = test system: NCI-H322M; test: Cytotoxicity against human NCI-H322M cells assessed as cell growth inhibition at 10 uM after 48 hrs by SRB assay relative to control; format: functional; details: read-out: GI
[8] = test system: NCI-H460; test: Cytotoxicity against human NCI-H460 cells assessed as cell growth inhibition at 10 uM after 48 hrs by SRB assay relative to control; format: functional; details: NCI-H460, 48 h, read-out: GI
[9] = Cytotoxicity against human COLO205 cells assessed as cell growth inhibition at 10 uM after 48 hrs by SRB assay relative to control; format: functional; details: COLO 205, 48 h, read-out: GI
[10] = test system: KM12; test: Cytotoxicity against human KM12 cells assessed as cell growth inhibition at 10 uM after 48 hrs by SRB assay relative to control; format: functional; details: KM12, 48 h, read-out: GI
[11] = Cytotoxicity against human SF539 cells assessed as cell growth inhibition at 10 uM after 48 hrs by SRB assay relative to control; format: functional; details: SF-539, 48 h, read-out: GI
[12] = Cytotoxicity against human SNB19 cells assessed as cell growth inhibition at 10 uM after 48 hrs by SRB assay relative to control; format: functional; details: SNB-19, 48 h, read-out: GI
[13] = test system: U-251; test: Cytotoxicity against human U251 cells assessed as cell growth inhibition at 10 uM after 48 hrs by SRB assay relative to control; format: functional; details: U-251, 48 h, read-out: GI
[14] = Cytotoxicity against human LOXIMVI cells assessed as cell growth inhibition at 10 uM after 48 hrs by SRB assay relative to control; format: functional; details: LOX IMVI, read-out: GI
[15] = test system: Malme-3M; test: Cytotoxicity against human MALME-3M cells assessed as cell growth inhibition at 10 uM after 48 hrs by SRB assay relative to control; format: functional; details: read-out: GI
[16] = test system: SK-MEL-2; test: Cytotoxicity against human SK-MEL-2 cells assessed as cell growth inhibition at 10 uM after 48 hrs by SRB assay relative to control; format: functional; details: SK-MEL-2, 48 h, read-out: GI
[17] = test system: SK-MEL-5; test: Cytotoxicity against human SK-MEL-5 cells assessed as cell growth inhibition at 10 uM after 48 hrs by SRB assay relative to control; format: functional; details: SK-MEL-5, 48 h, read-out: GI
[18] = Cytotoxicity against human UACC257 cells assessed as cell growth inhibition at 10 uM after 48 hrs by SRB assay relative to control; format: functional; details: UACC-257, 48 h, read-out: GI
[19] = Cytotoxicity against human UACC62 cells assessed as cell growth inhibition at 10 uM after 48 hrs by SRB assay relative to control; format: functional; details: UACC-62, 48 h, read-out: GI
[20] = Cytotoxicity against human SKOV3 cells assessed as cell growth inhibition at 10 uM after 48 hrs by SRB assay relative to control; format: functional; details: SK-OV-3, 48 h, read-out: GI
[21] = test system: 786-0; test: Cytotoxicity against human 786-0 cells assessed as cell growth inhibition at 10 uM after 48 hrs by SRB assay relative to control; format: functional; details: 786-0, 48 h, read-out: GI
[22] = Cytotoxicity against human UO31 cells assessed as cell growth inhibition at 10 uM after 48 hrs by SRB assay relative to control; format: functional; details: UO-31, 48 h, read-out: GI
[23] = Cytotoxicity against human BT549 cells assessed as cell growth inhibition at 10 uM after 48 hrs by SRB assay relative to control; format: functional; details: BT-549, 48 h, read-out: GI
[24] = test system: MDA-MB-468; test: Cytotoxicity against human MDA-MB-468 cells assessed as cell growth inhibition at 10 uM after 48 hrs by SRB assay relative to control; format: functional; details: MDA-MB-468, 48 h, read-out: GI

Sequence of Phosphatidylinositol 4,5-bisphosphate 3-kinase catalytic subunit gamma isoform (Homo sapiens) (P48736 whole entry, looked up, canonical isoform): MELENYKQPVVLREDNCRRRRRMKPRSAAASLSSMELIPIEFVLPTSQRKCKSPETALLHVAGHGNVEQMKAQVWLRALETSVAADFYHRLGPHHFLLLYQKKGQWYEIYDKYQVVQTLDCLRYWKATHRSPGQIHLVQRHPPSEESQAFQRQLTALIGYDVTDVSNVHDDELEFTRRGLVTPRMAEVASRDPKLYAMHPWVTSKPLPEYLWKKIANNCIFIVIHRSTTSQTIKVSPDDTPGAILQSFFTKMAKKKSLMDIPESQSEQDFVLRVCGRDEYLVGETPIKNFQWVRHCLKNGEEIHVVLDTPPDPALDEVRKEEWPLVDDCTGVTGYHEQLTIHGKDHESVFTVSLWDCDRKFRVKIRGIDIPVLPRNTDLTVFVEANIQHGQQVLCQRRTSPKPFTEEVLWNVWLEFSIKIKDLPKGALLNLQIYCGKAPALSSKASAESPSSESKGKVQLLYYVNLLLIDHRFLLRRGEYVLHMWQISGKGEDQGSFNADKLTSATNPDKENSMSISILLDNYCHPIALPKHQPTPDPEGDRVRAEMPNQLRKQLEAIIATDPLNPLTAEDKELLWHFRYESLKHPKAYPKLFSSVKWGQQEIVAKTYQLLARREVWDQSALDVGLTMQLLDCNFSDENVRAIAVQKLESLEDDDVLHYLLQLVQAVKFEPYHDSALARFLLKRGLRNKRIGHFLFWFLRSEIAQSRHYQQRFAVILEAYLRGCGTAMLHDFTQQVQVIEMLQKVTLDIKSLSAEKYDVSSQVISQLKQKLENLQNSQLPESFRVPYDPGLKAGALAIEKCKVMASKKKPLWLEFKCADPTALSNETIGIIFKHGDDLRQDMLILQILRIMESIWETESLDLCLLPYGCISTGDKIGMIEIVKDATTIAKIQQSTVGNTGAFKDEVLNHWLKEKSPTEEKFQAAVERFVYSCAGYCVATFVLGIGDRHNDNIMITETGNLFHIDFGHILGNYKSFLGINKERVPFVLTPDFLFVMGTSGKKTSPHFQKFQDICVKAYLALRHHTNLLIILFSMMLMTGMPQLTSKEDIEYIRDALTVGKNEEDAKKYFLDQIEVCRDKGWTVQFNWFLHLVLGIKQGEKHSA

| Structure (SMILES) | inhibition [1] [%] | inhibition of growth at 10 µM [3] [%] | inhibition of growth at 10 µM [4] [%] | inhibition of growth at 10 µM [5] [%] | inhibition of growth at 10 µM [6] [%] | inhibition of growth at 10 µM [7] [%] | inhibition of growth at 10 µM [8] [%] | inhibition of growth at 10 µM [9] [%] | inhibition of growth at 10 µM [10] [%] | inhibition of growth at 10 µM [11] [%] | inhibition of growth at 10 µM [12] [%] | inhibition of growth at 10 µM [13] [%] | inhibition of growth at 10 µM [14] [%] | inhibition of growth at 10 µM [15] [%] | inhibition of growth at 10 µM [16] [%] | inhibition of growth at 10 µM [17] [%] | inhibition of growth at 10 µM [18] [%] | inhibition of growth at 10 µM [19] [%] | inhibition of growth at 10 µM [20] [%] | inhibition of growth at 10 µM [21] [%] | also measured |
| --- | --- | --- | --- | --- | --- | --- | --- | --- | --- | --- | --- | --- | --- | --- | --- | --- | --- | --- | --- | --- | --- |
| O=c1nc(N2CCOCC2)oc2c(-c3ccsc3)cccc12 | 29 | 8.93 | 4.04 | 16.3 | 21.9 | 16 | -4.22 | -5.35 | 2.74 | -6.9 | -3.77 | 8.75 | 10.6 | 9.75 | -2.53 | 13.4 | 1.24 | 31.4 | -0.06 | 11.9 | IC50 [2]: 4.8 µM; inhibition of growth at 10 µM [22]: 23.4%; inhibition of growth at 10 µM [23]: 4.54%; inhibition of growth at 10 µM [24]: 15% |
| COc1ccc(-c2cccc3c(=O)nc(N4CCOCC4)oc23)cc1 | 7 | 2.57 | 7.35 | 11.1 | 15.1 | 3.11 | -5.69 | -2.6 | 2.91 | -2.27 | -0.25 | 0.83 | 13 | -4.08 | -9.8 | 9.19 | 4.28 | 19.3 | -6.51 | 9.72 | IC50 [2]: 2.7 µM; inhibition of growth at 10 µM [22]: 17.4%; inhibition of growth at 10 µM [23]: 4.99%; inhibition of growth at 10 µM [24]: 6.21% |
| O=c1nc(N2CCOCC2)oc2ccc(-c3cccc4c3sc3ccccc34)cc12 | 0 | 4.4 | -10.4 | 5.25 | 11.7 | -0.24 | -1.46 | -2.96 | 0.12 | 0.05 | 4.68 | 6.66 | 1.76 | 4.63 | 1.3 | 9.84 | 4.51 | 12.6 | -10.4 | 5.42 | inhibition of growth at 10 µM [22]: 1.02%; inhibition of growth at 10 µM [23]: 4.62%; inhibition of growth at 10 µM [24]: 20% |

Source: ChEMBL document CHEMBL3763148, “Synthesis, structure elucidation, DNA-PK and PI3K and anti-cancer activity of 8- and 6-aryl-substituted-1-3-benzoxazines” (Eur J Med Chem, 2016)
